Calls of active or inactive are those of the source.
Experiments:
[1] = biological target: T1, Uridylate kinase (Escherichia coli (strain K12)) (UniProt P0A7E9); assay: Inhibition of recombinant Escherichia coli UMP kinase pyrH catalyzed UMP phosphorylation in presence of GTP and ATP incubated for 1 hr by luminescence based assay
T1 sequence (whole entry): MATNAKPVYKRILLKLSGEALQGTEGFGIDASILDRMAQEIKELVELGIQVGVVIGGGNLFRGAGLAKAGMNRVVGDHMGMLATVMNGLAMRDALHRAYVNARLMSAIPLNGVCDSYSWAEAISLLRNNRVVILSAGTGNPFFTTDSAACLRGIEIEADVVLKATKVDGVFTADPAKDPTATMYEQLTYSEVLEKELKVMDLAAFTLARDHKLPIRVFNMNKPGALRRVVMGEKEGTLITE

LNCaP [2] = assay: Antitumor activity against human LNCAP cells xenografted in mouse assessed as induction of tumor shrinkage at 1 to 100 mg/kg, ip dosed every other day and measured after 6 weeks by microscopy; type: functional, organism-based
[3] = biological target: T2, Nucleoside diphosphate phosphatase ENTPD5 (Homo sapiens) (UniProt O75356); assay: Inhibition of human recombinant ENTPD5 expressed in insect cells assessed as reduction in UDP hydrolysis up to 10 uM incubated for 1 hr in presence of UMP, GTP and ATP by Escherichia coli UMP kinase pyrH catalyzed UMP phosphorylation coupled luciferase assay
T2 sequence (whole entry): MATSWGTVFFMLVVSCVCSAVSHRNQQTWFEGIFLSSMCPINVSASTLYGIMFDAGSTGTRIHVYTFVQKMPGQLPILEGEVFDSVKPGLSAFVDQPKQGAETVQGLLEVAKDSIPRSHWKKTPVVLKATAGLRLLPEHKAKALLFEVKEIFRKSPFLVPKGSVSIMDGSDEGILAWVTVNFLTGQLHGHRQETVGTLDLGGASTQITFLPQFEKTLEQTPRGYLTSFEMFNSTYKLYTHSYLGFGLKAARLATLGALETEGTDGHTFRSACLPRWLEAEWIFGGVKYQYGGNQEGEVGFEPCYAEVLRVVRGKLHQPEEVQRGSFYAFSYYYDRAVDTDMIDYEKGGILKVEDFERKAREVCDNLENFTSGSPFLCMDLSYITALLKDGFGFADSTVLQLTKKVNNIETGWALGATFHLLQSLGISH

[4] = biological target: T2, Nucleoside diphosphate phosphatase ENTPD5 (Homo sapiens); assay: Inhibition of human recombinant ENTPD5 expressed in insect cells assessed as reduction in UDP hydrolysis at 1 uM incubated for 1 hr in presence of UMP, GTP and ATP by Escherichia coli UMP kinase pyrH catalyzed UMP phosphorylation coupled luciferase assay
[5] = biological target: T3, Ectonucleoside triphosphate diphosphohydrolase 5 (Mus musculus) (UniProt Q9WUZ9); assay: Inhibition of ENTPD5 in PTEN knockout mouse MEF cells assessed as induction of ER stress by measuring increase in GRP78/BiP expression at 30 uM incubated for 24 hrs by Western blotting analysis; type: cell-based
T3 sequence (whole entry): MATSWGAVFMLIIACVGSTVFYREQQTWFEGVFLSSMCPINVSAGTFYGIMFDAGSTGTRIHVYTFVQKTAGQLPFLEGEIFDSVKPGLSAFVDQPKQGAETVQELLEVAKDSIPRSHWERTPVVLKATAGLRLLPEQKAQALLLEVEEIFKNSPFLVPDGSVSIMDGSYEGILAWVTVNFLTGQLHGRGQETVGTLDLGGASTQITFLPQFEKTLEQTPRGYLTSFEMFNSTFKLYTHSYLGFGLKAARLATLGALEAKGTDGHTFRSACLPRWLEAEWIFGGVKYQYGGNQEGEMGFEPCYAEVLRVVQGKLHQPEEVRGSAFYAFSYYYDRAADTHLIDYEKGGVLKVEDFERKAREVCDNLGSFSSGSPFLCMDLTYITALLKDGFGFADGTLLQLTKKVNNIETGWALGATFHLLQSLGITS

LNCaP [6] = assay: Antitumor activity against human LNCAP cells xenografted in mouse assessed as reduction in cells left in matrigels at 1 to 100 mg/kg, ip dosed every other day and measured after 6 weeks by hematoxylin and eosin staining based microscopy; type: functional, organism-based
[7] = biological target: T2, Nucleoside diphosphate phosphatase ENTPD5 (Homo sapiens); assay: Inhibition of human recombinant ENTPD5 expressed in insect cells assessed as reduction in reduction in UDP hydrolysis by measuring inorganic phosphate release incubated for 1 hr by malachite green based assay

Row | Structure (SMILES) | inhibition [1] | Activity (LNCaP [2]) | inhibition [3] | inhibition [4] | inhibition [5] | Activity (LNCaP [6]) | inhibition [7]
1 | O=C1NC(=S)N(c2ccc(Cl)cc2)C(=O)/C1=C\c1ccc(-c2ccc([N+](=O)[O-])cc2)o1 | inactive | Active | Dose-dependent effect | Active | Active | Active | Active
2 | O=C(Nc1ccccc1)NC(N1CCOCC1)C(Cl)(Cl)Cl (stereo unspecified) | inactive | Active | Dose-dependent effect | Active | Active | Active | Active
3 | N#CC1=C(c2ccco2)CC(c2ccccc2)NC1=S (stereo unspecified) | inactive | Active | Dose-dependent effect | Active | Active | Active | Active
4 | O=C1NC(=S)N(c2ccccc2)C(=O)/C1=C/c1cccn1-c1ccc(Cl)cc1 | inactive | Active | Dose-dependent effect | Active | Active | Active | Active
5 | Cc1ccc(-c2ccc(C=C3C(=O)NC(=S)NC3=O)o2)c(Br)c1 | inactive | Active | Dose-dependent effect | Active | Active | Active | Active
6 | O=C1NC(=S)N(c2ccccc2)C(=O)/C1=C/c1ccc(-c2ccc(F)cc2)o1 | inactive | Active | Dose-dependent effect | Active | Active | Active | Active
7 | S=C(Nc1ccc2nc(-c3ccco3)c(-c3ccco3)nc2c1)N1CCCCCC1 | inactive | Active | Dose-dependent effect | Active | Active | Active | Active
8 | COc1cc(C2Nc3cccc4cccc(c34)N2)cc(I)c1O | inactive | – | Dose-dependent effect | Active | – | – | Active
9 | N=C1NC(=O)/C(=C/C=C/c2ccc([N+](=O)[O-])o2)S1 | inactive | – | Dose-dependent effect | Active | – | – | Active
10 | CCOc1cc(/C=C2\SC(=S)NC2=O)cc(Br)c1OCc1cccc2ccccc12 | inactive | – | Dose-dependent effect | Active | – | – | Active
11 | Cc1ccc(N2C(=O)/C(=C/c3cc(Br)cc(I)c3O)C(=O)NC2=S)cc1C | inactive | – | Dose-dependent effect | Active | – | – | Active
12 | O=C1NC(=S)N(c2ccccc2F)C(=O)/C1=C/c1cccn1-c1ccc(Cl)cc1 | inactive | – | Dose-dependent effect | Active | – | – | Active
13 | Cc1ccc(-c2ccc(C=C3C(=O)NC(=O)NC3=O)o2)c(Br)c1 | inactive | – | Dose-dependent effect | Active | – | – | Active
14 | Cc1ccc(CNC(=O)c2cc(-c3ccc(Br)s3)nc3ccccc23)o1 | inactive | – | Dose-dependent effect | Active | – | – | Active
15 | O=C(Cn1cc(/C=C2/C(=O)NC(=O)N(c3ccc4c(c3)OCO4)C2=O)c2ccccc21)Nc1ccccc1 | inactive | – | Dose-dependent effect | Active | – | – | Active
16 | O=C(c1ccc2c(c1)C1C=CCC1C(c1ccc(Br)cc1)N2)N1CCCCCC1 (stereo unspecified) | inactive | – | Dose-dependent effect | Active | – | – | Active
17 | CC(=O)c1ccc(-c2ccc(/C=C3\C(=O)NC(=S)N(c4ccc(Br)cc4)C3=O)o2)cc1 | inactive | – | Dose-dependent effect | Active | – | – | Active
18 | O=C1NC(=O)N(c2ccc(Cl)cc2)C(=O)/C1=C/c1cccn1-c1ccccc1 | inactive | – | Dose-dependent effect | Active | – | – | Active
19 | O=C(O)c1ccc(-c2ccc(/C=C3\SC(=S)N(c4ccc([N+](=O)[O-])cc4)C3=O)o2)cc1 | inactive | – | Dose-dependent effect | Active | – | – | Active
20 | C=C[S+]([O-])c1sc(Cl)c(N2CCN(c3c(Cl)sc([S+]([O-])C=C)c3[N+](=O)[O-])CC2)c1[N+](=O)[O-] (stereo unspecified) | inactive | – | Dose-dependent effect | Active | – | – | Active
21 | O=C(/C=C/c1ccco1)/C=C/c1ccc(-c2ccc(Br)cc2)o1 | inactive | – | Dose-dependent effect | Active | – | – | Active
22 | O=C1/C(=C/c2ccc(-c3ccc(Cl)cc3)o2)SC(=S)N1Cc1ccco1 | inactive | – | Dose-dependent effect | Active | – | – | Active
23 | C=CCN(CC(=O)Nc1cc(C)on1)C(=O)CCCC | inactive | – | Dose-dependent effect | Active | – | – | Active
24 | O=C(Nc1ccc2c(c1)S(=O)(=O)c1cc(NC(=O)c3cccs3)ccc1-2)c1cccs1 | inactive | – | Dose-dependent effect | Active | – | – | Active
25 | Cc1ccc(C2=C/C(=C/c3ccc(C)c([N+](=O)[O-])c3)C(=O)O2)c(C)c1 | inactive | – | Dose-dependent effect | Active | – | – | Active
26 | O=C(Nc1nonc1NC(=O)c1sc2cc(Cl)ccc2c1Cl)c1sc2cc(Cl)ccc2c1Cl | inactive | – | Dose-dependent effect | Active | – | – | Active
27 | Cc1cccc(Oc2ccc(N3C(=O)C=CC3=O)cc2)c1C | inactive | – | Dose-dependent effect | Active | – | – | Active
28 | CC1=C(C(=O)OC(C)C)C(c2cn(-c3ccccc3)nc2-c2ccc(Cl)cc2)C(C(=O)OC(C)C)=C(C)N1 | inactive | – | Dose-dependent effect | Active | – | – | Active
29 | COc1cc(-c2ccc(/C=C/c3[nH]c(=O)[nH]c(=O)c3[N+](=O)[O-])o2)c(OC)cc1Cl | inactive | – | Dose-dependent effect | Active | – | – | Active
30 | O=C1/C(=C/c2ccc(-c3cccc(C(F)(F)F)c3)o2)SC(=S)N1Cc1ccco1 | inactive | – | Dose-dependent effect | Active | – | – | Active
